In ChEMBL document CHEMBL1123591, “Synthetic analogues of tetrahydrobiopterin with cofactor activity for aromatic amino acid hydroxylases” (1987) one finds Relative velocity data, which are given here for nine compounds.

Each structure is given as a SMILES string.

For the first assay, the system named is dihydropteridine reductase. The assay is described as follows: Tested in isolated enzyme assay for its cofactor activity against dihydropteridine reductase expressed as relative velocity.
As to `CC(O)C(O)C1CNc2nc(N)nc(O)c2N1.Cl.Cl` (centres undefined), the Relative velocity was found to be 100%. `CC(C)(C)OCC1CNc2nc(N)nc(O)c2N1.Cl.Cl` (centres undefined) yielded a Relative velocity of 222%. `CCCOCC1CNc2nc(N)nc(O)c2N1.Cl.Cl` (centres undefined) returned a Relative velocity of 212%. The compound `COCC1CNc2nc(N)nc(O)c2N1.Cl.Cl` (centres undefined) registered a Relative velocity of 421%.

`CC(C)OCC1CNc2nc(N)nc(O)c2N1.Cl.Cl` (centres undefined) came in with a Relative velocity of 277%.

`CCOCC1CNc2nc(N)nc(O)c2N1.Cl.Cl` (centres undefined) yielded a Relative velocity of 419%. The compound `CC1CNc2nc(N)[nH]c(=O)c2N1.Cl.Cl` (centres undefined) showed a Relative velocity of 216%.

As for `CC1(C)CNc2nc(N)nc(O)c2N1`, the Relative velocity is 239%.

The next assay relates to dihydropteridine reductase. The assay is described as follows: Tested in isolated enzyme assay for its cofactor actidihydropteridine reductaseity against dihydropteridine reductase expressed as relatidihydropteridine reductasee dihydropteridine reductaseelocity.
The compound `CCCCOCC1CNc2nc(N)nc(O)c2N1.Cl.Cl` (centres undefined) registered a Relative velocity of 283%.
